Source: PMC3866116 (PLoS ONE, 2013)

Key:
[1] = tested on: ISGs (Mx1, MxA, IFIT4, ISG15, OAS1, OAS2, OAS3); experiment: RT-PCR of interferon stimulated genes in replicon cells; format: cell-based; conditions: replicon cell line of genotype 1b, 48 h, listed as CAPE
Protocol: Total RNAs were prepared from cells by using the RNAqueous-4PCR kit (Life Technologies, Carlsbad, CA). Viral RNA were prepared from culture supernatants by using the QIAamp Viral RNA mini kit (QIAGEN, Hilden, Germany). The viral RNA genome was estimated by the qRT-PCR method described previously. RT-PCR was carried out by the method described previously which was slightly modified at the PCR step. The PCR samples were incubated once for 10 min at 95°C for an initial activation step of the AmpliTaq Gold DNA Polymerase (Life Technologies), and then subjected to an amplification step of 30 repeats of the cycle consisting of three segments as follow: 0.5 min at 95°C, 1 min at 55°C and 1 min at 72°C. The primers used in this study were as follows: Mx1: 5′-[…]-3′ and 5′-[…]-3′;

[2] = Cytotoxicity (MTS assay) in Huh7/Rep-Feo replicon cells; format: cell-based; conditions: human, Huh7/Rep-Feo cells, MTS, read-out: CC50, fifty percent cytotoxicity concentration based on the reduction in cell viability
Protocol: (§1) The replicon cells were seeded at a density of 1×10^4 cells per well in a 96-well plate and then incubated at 37°C for 24 h. […] Cell viability was measured using a dimethylthiazol carboxymethoxy-phenylsulfophenyl tetrazolium (MTS) assay with a CellTiter 96 aqueous one-solution cell proliferation assay kit (Promega).

Huh7/Rep-Feo cells = experiment: as above; format: cell-based; conditions: Huh7/Rep-Feo, 1.3 to 40 µM, 72 h
Protocol: as §1

[3] = tested on: HCV subgenomic replicon RNA of genotype 1b strain N (Huh7/Rep-Feo cells); experiment: Luciferase assay in HCV subgenomic replicon cell line Huh7/Rep-Feo; format: cell-based, hepatitis C virus
Protocol: The Huh7/Rep-Feo cell line, which harbors the subgenomic replicon RNA composed of HCV IRES, the gene of the fusion protein consisting of neomycin phosphotransferase and firefly luciferase, EMCV IRES and a nonstructural gene of genotype 1b strain N in order in Huh7 cell line, was previously established. Thus, the luciferase activity corresponds to the level of HCV RNA replication. The cell line was maintained in Dulbecco's modified Eagle medium containing 10% fetal calf serum and 0.5 mg/mL G418 and cultured in absence of G418 when they were treated with compounds. The Lunet/Con1LUN Sb #26 cell line, which harbors the subgenomic replicon RNA of the Con1 strain (genotype 1b), was described previously. The OR6 cell line, which harbors the full genomic replicon RNA of the O strain (genotype 1b), was described previously. The HCV replicon cell line derived from the genotype 2a strain JFH1 was described previously. The viral RNA derived from the plasmid pJFH1 was transcribed and introduced into Huh7OK1 cells according to the method of Wakita et al.. The virus was amplified by the several times passages. The cells were infected with the virus at a multiplicity of infection (moi) of 1 and then treated with each compound at 24 h post-infection. The culture supernatants were harvested 72 h post-treatment to estimate the viral RNA as described below.
The replicon cells were seeded at 2×10^4 cells per well in a 48-well plate 24 h before treatment. […] The resulting cells were harvested 72 h post-treatment and lysed with cell culture lysis reagent (Promega, Madison, WI). The luciferase activity of each cell lysate was estimated using a luciferase assay system (Promega). The resulting luminescence was detected by a Luminescencer-JNR AB-2100 (ATTO, Tokyo, Japan).

HCV NS3 = experiment: Western blotting of NS3 in Huh7/Rep-Feo cells; format: cell-based, hepatitis C virus; conditions: Huh7/Rep-Feo cells treated 72 h, dose-dependent
Protocol: Western blotting was carried out by the method described previously. The antibodies to NS3 (clone 8G-2, mousemonoclonal, Abcam, Cambridge, UK), and beta-actin were purchased from Cell Signaling Technology (rabbit polyclonal, Danvers, MA, USA) and were used as the primary antibodies in this study.

ISRE-promoter activity = experiment: ISRE reporter assay in Huh7 OK1 cells; format: cell-based; conditions: 48 h of treatment, interferon alpha 2b as positive control

O=C(/C=C/c1ccc(O)c(O)c1)OCCc1ccccc1 [Compound 1, Caffeic acid phenethyl ester]
transcriptional expressions of ISGs (Mx1, MxA, IFIT4, ISG15, OAS1, OAS2, OAS3) induced [1]: did not induce
CC50 at 72 h [2]: 136 ± 1.9 µM
cell viability (Huh7/Rep-Feo cells): did not affect
EC50 ([3]; Hepatitis C virus, Huh-7, 72 h, read-out: EC50, fifty percent effective concentration based on the inhibition of HCV replication): 9 ± 0.7 µM
HCV RNA replication (luciferase activity) ([3]; Huh7/Rep-Feo, various concentrations (compound 1: 1.3 to 40 µM), 72 h, dose-dependent): suppressed
NS3 protein level (HCV NS3): decreased
effect on ISRE-promoter activities (ISRE-promoter activity): no significant effects
